{"source": "ChEMBL document CHEMBL1811812", "about": "“Identification of a novel selective H1-antihistamine with optimized pharmacokinetic properties for clinical evaluation in the treatment of insomnia” (Bioorg Med Chem Lett, 2010)", "key": {"Rattus norvegicus [1]": {"tested_on": "Rattus norvegicus", "assay": "Effect on sleep-awake cycle in EEG/EMG rat model assessed as increase in non rapid eye movement sleep at 3 mg/kg measured up to 4 hrs relative to control", "format": "functional"}, "Rattus norvegicus [2]": {"tested_on": "Rattus norvegicus", "assay": "Effect on sleep-awake cycle in EEG/EMG rat model assessed as latency to 1 min NREM sleep at 3 mg/kg measured up to 4 hrs relative to control", "format": "functional"}, "[3]": {"assay": "Inhibition of H2 receptor"}, "Rattus norvegicus [4]": {"tested_on": "Rattus norvegicus", "assay": "Effect on sleep-awake cycle in EEG/EMG rat model assessed as increase in non rapid eye movement sleep at 30 mg/kg measured up to 4 hrs relative to control", "format": "functional"}, "Rattus norvegicus [5]": {"tested_on": "Rattus norvegicus", "assay": "Effect on sleep-awake cycle in EEG/EMG rat model assessed as latency to 1 min NREM sleep at 30 mg/kg measured up to 4 hrs relative to control", "format": "functional"}, "Homo sapiens [6]": {"organism": "Homo sapiens", "assay": "Selectivity for histamine H1 receptor over histamine H2 receptor in human conjuctival mast cells"}, "Rattus norvegicus [7]": {"tested_on": "Rattus norvegicus", "assay": "Effect on sleep-awake cycle in EEG/EMG rat model assessed as increase in non rapid eye movement sleep at 60 mg/kg measured up to 4 hrs relative to control", "format": "functional"}, "Rattus norvegicus [8]": {"tested_on": "Rattus norvegicus", "assay": "Effect on sleep-awake cycle in EEG/EMG rat model assessed as latency to 1 min NREM sleep at 60 mg/kg measured up to 4 hrs relative to control", "format": "functional"}, "[9]": {"assay": "Elimination half life in human at 50 mg by RIA", "format": "ADME, organism-based", "details": "in vivo, read-out: beta t1/2 (converted)"}, "Homo sapiens [10]": {"organism": "Homo sapiens", "assay": "Toxicity in human assessed as residual effect at 1 mg to 3 mg", "format": "organism-based", "details": "in vivo"}, "Homo sapiens [11]": {"organism": "Homo sapiens", "assay": "Antiinsomnic activity in human assessed as duration of sleep maintenance at 1 mg", "format": "functional"}, "Homo sapiens [12]": {"organism": "Homo sapiens", "assay": "Antiinsomnic activity in human assessed as duration of sleep maintenance at 1 mg after 8 hrs", "format": "functional, organism-based"}, "[13]": {"assay": "Clearance in EEG/EMG rat model", "details": "in vivo"}, "[14]": {"assay": "Dissociation constant, pKa of the compound"}, "[15]": {"assay": "AUC (0 to t) in human at […], po", "format": "ADME, organism-based", "parameters": "route oral", "details": "plasma"}, "[16]": {"assay": "Systemic clearance in human at […]", "format": "ADME, organism-based", "details": "in vivo"}, "[17]": {"assay": "Half life in human at […], po", "format": "ADME, organism-based", "parameters": "route oral", "details": "in vivo"}, "[18]": {"assay": "Plasma concentration in human at […] after 1 hr", "format": "ADME, organism-based"}, "Cytochrome P450 3A4": {"target": "Cytochrome P450 3A4 (Homo sapiens, UniProt P08684)", "sequence (P08684 whole entry)": "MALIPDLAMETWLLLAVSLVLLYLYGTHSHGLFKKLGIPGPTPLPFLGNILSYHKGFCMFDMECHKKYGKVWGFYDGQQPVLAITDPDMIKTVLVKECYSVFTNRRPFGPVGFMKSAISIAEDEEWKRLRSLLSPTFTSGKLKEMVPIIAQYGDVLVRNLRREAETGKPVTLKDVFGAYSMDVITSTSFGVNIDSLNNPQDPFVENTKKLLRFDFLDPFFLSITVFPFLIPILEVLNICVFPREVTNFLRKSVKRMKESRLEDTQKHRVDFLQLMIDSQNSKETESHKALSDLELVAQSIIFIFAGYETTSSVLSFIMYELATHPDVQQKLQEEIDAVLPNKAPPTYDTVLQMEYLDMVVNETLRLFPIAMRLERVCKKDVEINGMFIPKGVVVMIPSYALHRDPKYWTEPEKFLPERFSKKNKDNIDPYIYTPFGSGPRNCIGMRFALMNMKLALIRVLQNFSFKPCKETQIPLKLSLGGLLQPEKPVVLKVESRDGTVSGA"}, "clinical [19]": {"assay": "clinical", "details": "human, plasma, 0.1 mg/kg", "description": "AUC (0 to t) in human at 0.1 mg/kg"}, "clinical [20]": {"assay": "clinical", "details": "human, in vivo, po, 0.1 mg/kg", "description": "Half life in human at 0.1 mg/kg, po and iv administered as single dose"}}, "note": "Activity calls are given as the source filed them. The calls are words filed in the database; no cut-off is given here.", "data": [{"smiles": "CN(C)CCC1=C(Cc2cccnn2)c2ccc(F)cc2C1", "values": [{"measurement": "Activity", "setting": "Rattus norvegicus [1]", "value": 136, "unit": "%"}, {"measurement": "Activity", "setting": "Rattus norvegicus [2]", "value": 106, "unit": "%"}]}, {"smiles": "COc1nccnc1[C@H](C)C1=C(CCN(C)C)Cc2cc(F)ccc21", "values": [{"measurement": "Ki", "setting": "[3]", "value": 4.5, "unit": "nM"}]}, {"smiles": "Cc1ccc(-c2nc3ccc(C)cn3c2CC(=O)N(C)C)cc1", "note": "[ZOLPIDEM]", "values": [{"measurement": "Activity", "setting": "Rattus norvegicus [4]", "value": 205, "unit": "%"}, {"measurement": "Activity", "setting": "Rattus norvegicus [5]", "value": 17, "unit": "%"}]}, {"smiles": "C[C@H](C1=C(CCN(C)C)Cc2ccccc21)c1ccccn1", "values": [{"measurement": "Selectivity ratio", "setting": "Homo sapiens [6]", "value": 100}]}, {"smiles": "C[C@H](C1=C(CCN(C)C)Cc2ccccc21)c1cnccn1", "values": [{"measurement": "Activity", "setting": "Rattus norvegicus [7]", "value": 145, "unit": "%"}, {"measurement": "Activity", "setting": "Rattus norvegicus [8]", "value": 109, "unit": "%"}]}, {"smiles": "CN(C)CCC=C1c2ccccc2COc2ccccc21", "note": "[DOXEPIN]", "values": [{"measurement": "half-life", "setting": "[9]", "value": 18, "unit": "h"}, {"measurement": "Activity", "setting": "Homo sapiens [10]", "value": "Non-toxic"}, {"measurement": "Time", "setting": "Homo sapiens [11]", "value": 8, "unit": "h"}, {"measurement": "Activity", "setting": "Homo sapiens [12]", "value": "inactive"}]}, {"smiles": "C[C@@H](c1ccccn1)c1c(CCN(C)C)sc2ccccc12", "values": [{"measurement": "clearance", "setting": "[13]", "value": "> 68", "unit": "mL/min/kg"}, {"measurement": "pKa", "setting": "[14]", "value": 8.5}, {"measurement": "AUC(0-t)", "setting": "[15]", "value": 1.9, "unit": "ng·h/mL"}, {"measurement": "clearance", "setting": "[16]", "value": 3.8, "unit": "mL/min/kg"}, {"measurement": "half-life", "setting": "[17]", "value": 3.6, "unit": "h"}, {"measurement": "concentration at 1 h", "setting": "[18]", "value": 4, "unit": "ng/mL"}, {"measurement": "Activity", "setting": "Rattus norvegicus [4]", "value": 142, "unit": "%"}, {"measurement": "Activity", "setting": "Rattus norvegicus [5]", "value": 124, "unit": "%"}, {"measurement": "IC50", "setting": "Cytochrome P450 3A4", "value": "> 10000", "unit": "nM"}, {"measurement": "AUC(0-t)", "setting": "clinical [19]", "value": 2.8, "unit": "ng·h/mL"}, {"measurement": "half-life", "setting": "clinical [20]", "value": 6.8, "unit": "h"}]}]}
